Laboratory results: ChEMBL document CHEMBL6115034, “Pseudonatural Flavonols as Novel Copper Ionophores for NAFLD Intervention via Synergistic Copper Delivery and Flavonoid Activity” (J Med Chem, 2025)
The source made the active and inactive calls. No cut-off for these calls is given here.

Legend:
[1] = Stability of compound in PBS buffer in presence of histidine by UV-Vis spectrophotometer analysis; assay type: physicochemical
HepG2 [2] = test: Anti-NAFLD activity in palmitic acid human HepG2 NAFLD cell model assessed as cell viability at 0.1 to 0.5 uM compound administrated as copper complex measured at 24 hrs by MTT assay; assay type: functional, cell-based; conditions: dose 0.1-0.5 µM
HepG2 [3] = test: Anti-NAFLD activity in palmitic acid human HepG2 NAFLD cell model assessed as upregulation of MT1X expression at 0.5 uM incubated for 24 hrs in presence of CuCl2 by mRNA sequencing analysis; assay type: functional, cell-based
Mus musculus [4] = test: Anti-NAFLD activity in high-fat diet-induced male C57BL/6J mouse model assessed as increase in lipid droplets accumulation in liver at 125 mg/kg, po compound administrated as copper complex measured for 10 weeks by H and E staining based analysis; assay type: functional, organism-based
HepG2 [5] = test: Anti-NAFLD activity in palmitic acid human HepG2 NAFLD cell model assessed as downregulation of STAT2 expression at 0.5 uM incubated for 24 hrs in presence of CuCl2 by mRNA sequencing analysis; assay type: functional, cell-based
[6] = Stability of compound in PBS buffer in presence of EDTA by UV-Vis spectrophotometer analysis; assay type: physicochemical
Mus musculus [7] = test: Anti-NAFLD activity in high-fat diet-induced male C57BL/6J mouse model assessed as increase in R5P level in liver at 125 mg/kg, po compound administrated as copper complex measured for 10 weeks by LC-MS/MS analysis; assay type: functional, organism-based
HepG2 [8] = test: Anti-NAFLD activity in palmitic acid human HepG2 NAFLD cell model assessed as upregulation of fatty acid metabolism related genes at 0.5 uM incubated for 24 hrs in presence of CuCl2 by mRNA sequencing analysis; assay type: functional, cell-based
HepG2 [9] = test: Anti-NAFLD activity in palmitic acid human HepG2 NAFLD cell model assessed as effect on IFIT3 expression at 0.5 uM incubated for 24 hrs in presence of CuCl2 by mRNA sequencing analysis; assay type: functional, cell-based
[10] = Toxicity in male C57BL/6 mouse assessed as change in ALT level at 125 mg/kg, po compound administrated as copper complex measured for 10 weeks; assay type: organism-based; conditions: in vivo, 1680 h
Mus musculus [11] = test: Anti-NAFLD activity in high-fat diet-induced male C57BL/6J mouse model assessed as increase in malic acid level at 125 mg/kg, po compound administrated as copper complex measured for 10 weeks by LC-MS/MS analysis; assay type: functional, organism-based
Mus musculus [12] = test: Anti-NAFLD activity in high-fat diet-induced male C57BL/6J mouse model assessed as increase in S7P level in liver at 125 mg/kg, po compound administrated as copper complex measured for 10 weeks by LC-MS/MS analysis; assay type: functional, organism-based
HepG2 [13] = test: Anti-NAFLD activity in palmitic acid human HepG2 NAFLD cell model assessed as upregulation of CYP4F3 expression at 0.5 uM incubated for 24 hrs in presence of CuCl2 by mRNA sequencing analysis; assay type: functional, cell-based
[14] = Toxicity in male C57BL/6 mouse assessed as kidney lesion at 125 mg/kg, po compound administrated as copper complex measured for 10 weeks; assay type: organism-based; conditions: in vivo, 1680 h
HepG2 [15] = test: Anti-NAFLD activity in palmitic acid human HepG2 NAFLD cell model assessed as downregulation of STEAP4 expression at 0.5 uM incubated for 24 hrs in presence of CuCl2 by mRNA sequencing analysis; assay type: functional, cell-based
HepG2 [16] = test: Anti-NAFLD activity in palmitic acid human HepG2 NAFLD cell model assessed as upregulation of MT1E expression at 0.5 uM incubated for 24 hrs in presence of CuCl2 by mRNA sequencing analysis; assay type: functional, cell-based
[17] = Stability of compound in PBS buffer in presence of cysteine by UV-Vis spectrophotometer analysis; assay type: physicochemical
Mus musculus [18] = test: Anti-NAFLD activity in high-fat diet-induced male C57BL/6J mouse model assessed as increase in copper level in liver at 125 mg/kg, po compound administrated as copper complex measured for 10 weeks by ICP-MS analysis; assay type: functional, organism-based
Mus musculus [19] = test: Anti-NAFLD activity in high-fat diet-induced male C57BL/6J mouse model assessed as increase in glucose level serum at 125 mg/kg, po compound administrated as copper complex measured for 10 weeks; assay type: functional, organism-based
HepG2 [20] = test: Anti-NAFLD activity in palmitic acid human HepG2 NAFLD cell model assessed as effect on IL6 expression at 0.5 uM incubated for 24 hrs in presence of CuCl2 by mRNA sequencing analysis; assay type: functional, cell-based
HepG2 [21] = test: Anti-NAFLD activity in palmitic acid human HepG2 NAFLD cell model assessed as downregulation of STAT3 expression at 0.5 uM incubated for 24 hrs in presence of CuCl2 by mRNA sequencing analysis; assay type: functional, cell-based
Mus musculus [22] = test: Anti-NAFLD activity in high-fat diet-induced male C57BL/6J mouse model assessed as increase in X5P level in liver at 125 mg/kg, po compound administrated as copper complex measured for 10 weeks by LC-MS/MS analysis; assay type: functional, organism-based
HeLa [23] = test: Induction of copper transporting activity in human HeLa cells assessed as increase in intracellular copper levels incubated upto 24 hrs by ICP-MS analysis; assay type: functional, cell-based; conditions: dose 0.02-20 µM
[24] = Stability of the compound in cell culture medium containing 10% fetal bovine serum in presence of histidine by UV-Vis spectrophotometer analysis; assay type: physicochemical, cell-free; conditions: cattle
Mus musculus [25] = test: Anti-NAFLD activity in high-fat diet-induced male C57BL/6J mouse model assessed as increase in E4P level in liver at 125 mg/kg, po compound administrated as copper complex measured for 10 weeks by LC-MS/MS analysis; assay type: functional, organism-based
HepG2 [26] = test: Anti-NAFLD activity in palmitic acid human HepG2 NAFLD cell model assessed as upregulation of SOD1 expression at 0.5 uM incubated for 24 hrs in presence of CuCl2 by mRNA sequencing analysis; assay type: functional, cell-based
HepG2 [27] = test: Anti-NAFLD activity in palmitic acid human HepG2 NAFLD cell model assessed as upregulation of PRDX1 expression at 0.5 uM incubated for 24 hrs in presence of CuCl2 by mRNA sequencing analysis; assay type: functional, cell-based
[28] = Toxicity in male C57BL/6 mouse assessed as heart lesion at 125 mg/kg, po compound administrated as copper complex measured for 10 weeks; assay type: organism-based; conditions: in vivo, 1680 h
HepG2 [29] = test: Anti-NAFLD activity in palmitic acid human HepG2 NAFLD cell model assessed as upregulation of TXN expression at 0.5 uM incubated for 24 hrs in presence of CuCl2 by mRNA sequencing analysis; assay type: functional, cell-based
Mus musculus [30] = test: Anti-NAFLD activity in high-fat diet-induced male C57BL/6J mouse model assessed as increase in F6P level in liver at 125 mg/kg, po compound administrated as copper complex measured for 10 weeks by LC-MS/MS analysis; assay type: functional, organism-based
Mus musculus [31] = test: Anti-NAFLD activity in high-fat diet-induced male C57BL/6J mouse model assessed as decrease in 3-phosphoglycerate at 125 mg/kg, po compound administrated as copper complex measured for 10 weeks by LC-MS/MS analysis; assay type: functional, organism-based
HeLa [32] = test: Induction of copper transporting activity in human HeLa cells assessed as increase in intracellular copper levels by measuring change in fluorescence intensity; assay type: functional, cell-based

Structure (SMILES): O=c1c(O)c(-c2ccc3cccc(O)c3n2)oc2ccccc12
- Stability [1]: Stable
- Activity (HepG2 [2]): Active
- Activity (HepG2 [3]): Active
- Activity (Mus musculus [4]): Active
- Activity (HepG2 [5]): Active
- Stability [6]: Stable
- Activity (Mus musculus [7]): Active
- Activity (HepG2 [8]): Active
- Activity (HepG2 [9]): Active
- Activity [10]: Non-toxic
- Activity (Mus musculus [11]): Active
- Activity (Mus musculus [12]): Active
- Activity (HepG2 [13]): Active
- Activity [14]: Non-toxic
- Activity (HepG2 [15]): Active
- Activity (HepG2 [16]): Active
- Stability [17]: Stable
- Activity (Mus musculus [18]): Active
- Activity (Mus musculus [19]): Active
- Activity (HepG2 [20]): Active
- Activity (HepG2 [21]): Active
- Activity (Mus musculus [22]): Active
- Activity (HeLa [23]): Dose-dependent-effect
- Stability [24]: Stable
- Activity (Mus musculus [25]): Active
- Activity (HepG2 [26]): Active
- Activity (HepG2 [27]): Active
- Activity [28]: Non-toxic
- Activity (HepG2 [29]): Active
- Activity (Mus musculus [30]): Active
- Activity (Mus musculus [31]): Active
- Activity (HeLa [32]): Active
